We go through 21 molecules from patent publication US11540518B2, “Fungicidal oxadiazoles” (FMC Corporation, priority 2017, dated 2023).

The subject of one assay is Phakopsora pachyrhizi. The experiment in a line: Test A: Asian soybean rust control on soybean seedlings. In kind it is in vivo. To be noted: sprayed to run-off on soybean seedlings, inoculated the following day, 100 = 100% disease control, 0 = no control. An excerpt:
General protocol for preparing test suspensions for Tests A-C: the test compounds were first dissolved in acetone in an amount equal to 3% of the final volume and then suspended at the desired concentration (in ppm) in acetone and purified water (50/50 mix by volume) containing 250 ppm of the surfactant PEG400 (polyhydric alcohol esters). The resulting test suspensions were then used in Tests A-C.
The test solution was sprayed to the point of run-off on soybean seedlings. The following day the seedlings were inoculated with a spore suspension of Phakopsora pachyrhizi (the causal agent of Asian soybean rust) and incubated in a saturated atmosphere at 22° C. for 24 h, and then moved to a growth chamber at 22° C. for 8 days, after which time visual disease ratings were made.
Results for Tests A-C are given in Table A. In the Table, a rating of 100 indicates 100% disease control and a rating of 0 indicates no disease control (relative to the controls). A dash (-) indicates the compound was not tested.

Assay [1] concerns Puccinia recondita f. sp. tritici. The experiment in a line: Test C: wheat leaf rust control on wheat seedlings. In kind it is in vivo. The following applies: sprayed to run-off on wheat seedlings, inoculated the following day, 100 = 100% disease control, 0 = no control. An excerpt:
General protocol for preparing test suspensions for Tests A-C: the test compounds were first dissolved in acetone in an amount equal to 3% of the final volume and then suspended at the desired concentration (in ppm) in acetone and purified water (50/50 mix by volume) containing 250 ppm of the surfactant PEG400 (polyhydric alcohol esters). The resulting test suspensions were then used in Tests A-C. The test solution was sprayed to the point of run-off on wheat seedlings. The following day the seedlings were inoculated with a spore suspension of Puccinia recondita f. sp. tritici (the causal agent of wheat leaf rust) and incubated in a saturated atmosphere at 20° C. for 24 h, and then moved to a growth chamber at 20° C. for 6 days, after which time disease ratings were made. Results for Tests A-C are given in Table A. In the Table, a rating of 100 indicates 100% disease control and a rating of 0 indicates no disease control (relative to the controls). A dash (-) indicates the compound was not tested.

Each structure is given as a SMILES string.

For the molecule `O=C(OCCc1ccc(-c2noc(C(F)(F)F)n2)cc1)n1ccnc1` [Compound 40, 2-[4-[5-(trifluoromethyl)-1,2,4-oxadiazol-3-yl]phenyl]ethyl-1H-imidazole-1-carboxylate], the pest or weed control at 10 ppm in the assay with Phakopsora pachyrhizi (Phakopsora pachyrhizi, 216 h, 10 ppm, read-out: Test A disease control rating) was found to be 0%; in assay [1] (Puccinia recondita, 168 h, 10 ppm, read-out: Test C disease control rating), 18%.

As to `O=C(Nc1cccnc1)OCCCc1ccc(-c2noc(C(F)(F)F)n2)cc1` [Compound 35], the “Test A disease control rating” value in the assay on Phakopsora pachyrhizi (50 ppm) was determined as 100%. For the same molecule, the “Test C disease control rating” value in assay [1] (50 ppm) came out at 100%.

`CC(C)(C)OC(=O)NN=Cc1ccc(-c2noc(C(F)(F)F)n2)cc1` [Compound 106]: in the assay with Phakopsora pachyrhizi (10 ppm), the “Test A disease control rating” value turned out to be 97%. Moreover, in assay [1] (10 ppm), the “Test C disease control rating” value is listed as 68%.

Consider `CC(OC(=O)n1ccnc1)c1ccc(-c2noc(C(F)(F)F)n2)cc1` (stereo not drawn) [Compound 70], for which the “Test A disease control rating” value in the assay with Phakopsora pachyrhizi (10 ppm) is 99%. In addition, the “Test C disease control rating” value in assay [1] (10 ppm) is on record as 68%.

As to `CC#CCNC(=O)OCc1ccc(-c2noc(C(F)(F)F)n2)cc1` [Compound 36], the “Test A disease control rating” value in the assay on Phakopsora pachyrhizi (10 ppm) turned out to be 100%. Also, the “Test C disease control rating” value in assay [1] (10 ppm) was 100%.

On to `COC(=O)c1ccc(CNC(=O)OCc2ccc(-c3noc(C(F)(F)F)n3)cc2)cc1` [Compound 24], for which the “Test A disease control rating” value in the assay with Phakopsora pachyrhizi (10 ppm) is 13%. For the same molecule, the “Test C disease control rating” value in assay [1] (10 ppm) worked out at 68%.

As for `CCNC(=O)OC(c1ccccc1)c1ccc(-c2noc(C(F)(F)F)n2)cc1` (stereo not drawn) [Compound 110], the “Test A disease control rating” value in the assay on Phakopsora pachyrhizi (250 ppm) came to 100%. Also, in assay [1] (250 ppm), the “Test C disease control rating” value is on record as 100%.

On to `CCOC(=O)NN=Cc1ccc(-c2noc(C(F)(F)F)n2)cc1` [Compound 107], for which, in the assay with Phakopsora pachyrhizi (10 ppm), the “Test A disease control rating” value is reported as 100%. Moreover, the “Test C disease control rating” value in assay [1] (10 ppm) is given as 99%.

Turning to `CCCNC(=O)OC(C)c1ccc(-c2noc(C(F)(F)F)n2)s1` (stereo not drawn) [Compound 74], in the assay with Phakopsora pachyrhizi (10 ppm), the “Test A disease control rating” value is reported as 100%. Further, the “Test C disease control rating” value in assay [1] (10 ppm) is given as 98%.

For the molecule `CCNC(=O)OC(C)c1ccc(-c2noc(C(F)(F)F)n2)cc1` (racemic) [Compound 19], the “Test A disease control rating” value with Phakopsora pachyrhizi (10 ppm) is on record as 100%. Besides, in assay [1] (10 ppm), the “Test C disease control rating” value turned out to be 74%.

For `CN(C)C(=O)OCCc1ccc(-c2noc(C(F)(F)F)n2)cc1` [Compound 44], the “Test A disease control rating” value with Phakopsora pachyrhizi (10 ppm) is 100%. The “Test C disease control rating” value in assay [1] (10 ppm) amounted to 41%.

With `C#CCNC(=O)OCc1ccc(-c2noc(C(F)(F)F)n2)s1` [Compound 37], the “Test A disease control rating” value in the assay on Phakopsora pachyrhizi (50 ppm) came out at 100%. For the same molecule, in assay [1] (50 ppm), the “Test C disease control rating” value is given as 100%.

Regarding `CC#CCNC(=O)OC(C)c1ccc(-c2noc(C(F)(F)F)n2)cc1` (stereo not drawn) [Compound 62], the “Test A disease control rating” value with Phakopsora pachyrhizi (50 ppm) is reported as 100%. Also, the “Test C disease control rating” value in assay [1] (50 ppm) worked out at 100%.

`CCNC(=O)OCCCc1ccc(-c2noc(C(F)(F)F)n2)cc1` [Compound 20]: the “Test A disease control rating” value in the assay on Phakopsora pachyrhizi (10 ppm) is recorded as 100%. Besides, in assay [1] (10 ppm), the “Test C disease control rating” value was determined as 99%.

On to `C=CCNC(=O)OCCCc1ccc(-c2noc(C(F)(F)F)n2)cc1` [Compound 29], for which, in the assay on Phakopsora pachyrhizi (10 ppm), the “Test A disease control rating” value worked out at 100%. Moreover, the “Test C disease control rating” value in assay [1] (10 ppm) amounted to 74%.

For `CN(C)C(=O)OCCCc1ccc(-c2noc(C(F)(F)F)n2)cc1` [Compound 28], in the assay with Phakopsora pachyrhizi (10 ppm), the “Test A disease control rating” value came to 100%. Further, the “Test C disease control rating” value in assay [1] (10 ppm) was 40%.

`NC(=O)OCc1ccc(-c2noc(C(F)(F)F)n2)o1` [Compound 80]: the “Test A disease control rating” value in the assay on Phakopsora pachyrhizi (10 ppm) was determined as 0%. Moreover, the “Test C disease control rating” value in assay [1] (10 ppm) amounted to 0%.

Turning to `CCOC(=O)c1ccc(CNC(=O)OCc2ccc(-c3noc(C(F)(F)F)n3)cc2)cc1` [Compound 26], the “Test A disease control rating” value in the assay with Phakopsora pachyrhizi (10 ppm) is recorded as 95%. Also, the “Test C disease control rating” value in assay [1] (10 ppm) was 26%.

Regarding `C#CCCNC(=O)OCCc1ccc(-c2noc(C(F)(F)F)n2)cc1` [Compound 66], the “Test A disease control rating” value with Phakopsora pachyrhizi (50 ppm) was 100%. For the same molecule, the “Test C disease control rating” value in assay [1] (50 ppm) came to 100%.

As to `CNC(=O)OC(C)c1ccc(-c2noc(C(F)(F)F)n2)cc1` (stereo not drawn) [Compound 71], the “Test A disease control rating” value in the assay with Phakopsora pachyrhizi (10 ppm) stood at 100%. Moreover, the “Test C disease control rating” value in assay [1] (10 ppm) is recorded as 83%.

Turning to `O=C(OC(c1ccccc1)c1ccc(-c2noc(C(F)(F)F)n2)cc1)n1ccnc1` (stereo not drawn) [Compound 111], the “Test A disease control rating” value in the assay with Phakopsora pachyrhizi (250 ppm) was 100%. The “Test C disease control rating” value in assay [1] (250 ppm) is listed as 100%.
